Reference: US10562844B2, “HYPDH inhibitors and methods of use for the treatment of kidney stones” (Wake Forest University Health Sciences, priority 2015, dated 2020)

What was measured:
human HYPDH [1] = target: T1, human HYPDH (Homo sapiens (Human), UniProt Q9UF12); assay: HYPDH inhibition activity assay (inhibitor pre-incubated 5 min, reaction started with Hyp); assay type: biochemical; details: inhibitor pre-incubated with HYPDH for 5 min; reaction started by addition of 600 mM Hyp
Source text: (§1) Despite the identification of the Hyp pathway in rat and bovine kidneys and livers over 50 years ago, very little is known about human HYPDH (also known as PRODH2 and hydroxyproline oxidase, HPOX, in the literature) (Miyata et al., Proc Natl Acad Sci USA 111, 14406-14411, 2014; Efron et al., New Engl J Med 272, 1299-1309; Pelkonen et al., New Engl J Med 283, 451-456, 1970). In an effort to biochemically and structurally characterize human HYPDH, we have evaluated numerous expression constructs (>15) in Escherichia coli with N- and C-terminal truncations. […] Only the constructs containing the residues 147-515 and 156-515 were >96% loaded with FAD+ and active.
Each inhibitor was pre-incubated with HYPDH for 5 min, and the reaction started by the addition of 600 mM Hyp. A range of concentrations was tested in order to determine the IC50 value. Table 1 lists the potency of the compounds.

human HYPDH [2] = target: T1, human HYPDH; assay: Anaerobic titration of the FAD+ spectrum of recombinant HYPDH; assay type: binding
Source text: as §1

T1 sequence (Q9UF12 71-439 limits assumed): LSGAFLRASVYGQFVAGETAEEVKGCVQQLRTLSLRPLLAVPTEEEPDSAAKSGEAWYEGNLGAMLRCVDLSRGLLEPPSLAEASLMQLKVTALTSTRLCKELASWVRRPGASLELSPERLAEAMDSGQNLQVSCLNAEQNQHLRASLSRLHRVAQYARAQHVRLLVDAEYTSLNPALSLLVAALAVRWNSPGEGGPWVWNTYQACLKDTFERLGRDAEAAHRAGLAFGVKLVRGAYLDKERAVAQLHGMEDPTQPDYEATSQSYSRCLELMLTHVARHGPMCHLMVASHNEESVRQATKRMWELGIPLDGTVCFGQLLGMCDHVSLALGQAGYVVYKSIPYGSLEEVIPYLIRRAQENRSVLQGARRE

SMILES | IC50 (human HYPDH [1]) [µM] | Kd (human HYPDH [2]) [µM]
N[C@H]1CCC(C(=O)O)C1 (stereo partly drawn) [Compound 9] | 630 ± 10 | 
O=C1CCC(C(=O)O)C1 (stereo not drawn) [Compound 10] | 380 ± 10 | 
O=C(O)C1CC[C@H](O)C1 (stereo partly drawn) [Compound 7] | 600 ± 10 | 
O=C(O)C1CC(O)CN1 (stereo not drawn) [Hyp, Hydroxyproline] |  | 125
O=C(O)C1CCCO1 (stereo not drawn) [Compound 2] | 1500 ± 100 | 
O=C1CC[C@@H](C(=O)O)C1 [Compound 11] | 370 ± 10 | 
O=C(O)C1CC[C@@H](O)C1 (stereo partly drawn) [Compound 6] | > 10000 | 
O=C(O)C1CCC(O)C1 (stereo not drawn) [Compound 5] | 2100 ± 100 | 
O=C(O)C[C@H]1CC[C@H](O)C1 [Compound 8] | 480 ± 10 | 
